# Molecular target: T1, Broad substrate specificity ATP-binding cassette transporter ABCG2 (Homo sapiens, UniProt Q9UNQ0)
# T1 sequence (Q9UNQ0 whole entry): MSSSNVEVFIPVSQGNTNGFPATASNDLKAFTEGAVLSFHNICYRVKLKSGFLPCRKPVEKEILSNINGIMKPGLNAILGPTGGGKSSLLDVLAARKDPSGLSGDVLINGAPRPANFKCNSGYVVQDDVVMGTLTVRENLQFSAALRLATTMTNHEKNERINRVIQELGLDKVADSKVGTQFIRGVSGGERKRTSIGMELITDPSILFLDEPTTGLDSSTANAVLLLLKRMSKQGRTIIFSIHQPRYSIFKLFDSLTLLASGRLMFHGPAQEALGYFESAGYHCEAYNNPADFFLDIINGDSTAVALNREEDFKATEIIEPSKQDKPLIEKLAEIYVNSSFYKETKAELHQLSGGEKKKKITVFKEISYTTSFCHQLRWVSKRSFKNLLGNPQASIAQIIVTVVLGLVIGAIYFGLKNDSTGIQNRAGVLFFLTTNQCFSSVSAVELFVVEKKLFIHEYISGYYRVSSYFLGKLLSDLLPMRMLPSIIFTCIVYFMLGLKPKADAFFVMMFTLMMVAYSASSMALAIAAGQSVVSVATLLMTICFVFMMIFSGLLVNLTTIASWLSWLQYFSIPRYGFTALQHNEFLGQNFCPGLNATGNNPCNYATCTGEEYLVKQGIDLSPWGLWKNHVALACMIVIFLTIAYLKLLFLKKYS
# Assay: TP_TRANSPORTER: increase in mitoxantrone intracellular accumulation in BCRP-expressing HEK cells
# Format: functional, cell-based, HEK293
row,Compound,IC50 [µM]
1,Cc1c(O)cccc1C(=O)N[C@@H](CSc1ccccc1)[C@H](O)CN1C[C@H]2CCCC[C@H]2C[C@H]1C(=O)NC(C)(C)C,12.5
2,CC(C)(C)NC(=O)[C@@H]1C[C@@H]2CCCC[C@@H]2CN1C[C@@H](O)[C@H](Cc1ccccc1)NC(=O)[C@H](CC(N)=O)NC(=O)c1ccc2ccccc2n1,19.5

# Reference: ChEMBL document CHEMBL2074256, “HIV protease inhibitors are inhibitors but not substrates of the human breast cancer resistance protein (BCRP/ABCG2)” (J Pharmacol Exp Ther, 2004)
